According to patent US7968570B2, “Isoindolone compounds and their use as metabotropic glutamate receptor potentiators” (AstraZeneca AB, priority 2004, dated 2011):
pEC50: −log10 of the molar value.

target: T1, human mGluR2 receptor (Homo sapiens, UniProt Q14416); test: [35S]-GTPγS binding assay of mGluR2 receptor activation; format: biochemical; settings: not given
T1 construct: expressed in transfected cells
Method in brief: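 CHO membranes stably expressing human mGluR2 (30 μg) preincubated 15 min at room temperature with compound (3 nM–300 μM), then 1 μM glutamate, 30 μM GDP, 0.1 nM [35S]-GTPγS, 30 min at 30° C in HEPES/NaCl/MgCl2. Filtration counting; EC50 and Emax relative to maximal glutamate effect by non-linear regression.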

T1 sequence (Q14416 19-872): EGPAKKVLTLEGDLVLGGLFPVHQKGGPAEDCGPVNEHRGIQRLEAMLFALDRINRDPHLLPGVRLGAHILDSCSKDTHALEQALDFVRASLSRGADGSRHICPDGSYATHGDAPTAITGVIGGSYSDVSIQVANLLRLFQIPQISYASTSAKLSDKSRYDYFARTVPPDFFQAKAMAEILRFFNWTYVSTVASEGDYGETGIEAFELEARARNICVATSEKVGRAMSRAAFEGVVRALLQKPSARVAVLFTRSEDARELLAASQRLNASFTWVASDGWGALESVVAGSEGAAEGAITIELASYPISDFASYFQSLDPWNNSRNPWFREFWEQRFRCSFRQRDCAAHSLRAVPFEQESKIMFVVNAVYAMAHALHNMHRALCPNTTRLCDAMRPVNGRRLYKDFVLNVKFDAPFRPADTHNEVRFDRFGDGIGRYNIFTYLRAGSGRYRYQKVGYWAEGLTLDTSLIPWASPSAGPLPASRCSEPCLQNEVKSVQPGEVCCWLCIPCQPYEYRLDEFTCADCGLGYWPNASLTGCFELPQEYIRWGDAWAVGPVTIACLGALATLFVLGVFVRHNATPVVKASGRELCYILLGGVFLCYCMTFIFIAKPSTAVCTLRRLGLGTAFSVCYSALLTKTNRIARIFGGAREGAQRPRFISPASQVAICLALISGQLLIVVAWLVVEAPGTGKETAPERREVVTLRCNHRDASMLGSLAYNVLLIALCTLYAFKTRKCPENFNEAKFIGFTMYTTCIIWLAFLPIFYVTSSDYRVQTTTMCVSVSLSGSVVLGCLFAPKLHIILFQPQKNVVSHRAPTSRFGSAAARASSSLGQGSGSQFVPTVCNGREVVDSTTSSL

SMILES | pEC50
Cc1cc(CC2CCN(Cc3ccc(C#N)cc3)CC2)cc2c1C(=O)N(Cc1ccc(OC(F)(F)F)cc1)C2 [Example 171, 4-{4-[7-methyl-1-oxo-2-(4-trifluorometh-oxy-benzyl)-2,3-dihydro-1H-isoindol-5-ylmethyl]-piperidin-1-ylmethyl}-benzonitrile] | 7.40

same assay, conditions: membranes from CHO cells stably expressing human mGluR2; 1 μM glutamate

SMILES | pEC50
Cc1cc(CN2CCC(CCCc3ccc(-n4ccnc4)cc3)CC2)cc2c1C(=O)N(Cc1ccc(OC(F)(F)F)cc1)C2 [Example 55, 5-{4-[3-(4-Imidazol-1-yl-phenyl)-propyl]-piperidin-1-ylmethyl}-7-methyl-2-(4-trifluoromethoxy-benzyl)-2,3-dihydroisoindol-1-one] | 7.70
Cc1cc(N2CCN(CCCN(C)C)CC2)cc2c1C(=O)N(Cc1ccc(OC(F)(F)F)cc1)C2 [Example 141, 5-[4-(3-Dimethylamino-propyl)-piperazin-1-yl]-7-methyl-2-(4-trifluoro-methoxy-benzyl)-2,3-dihydro-isoindol-1-one] | 6.12
COc1cc(C2=CCNCC2)cc2c1C(=O)N(Cc1ccc(OC(F)(F)F)cc1)C2 [Example 92] | 5.87
Cc1cc(CNCc2ccncc2)cc2c1C(=O)N(Cc1ccc(OC(F)(F)F)cc1)C2 [Example 42, 7-Methyl-5-{[(pyridine-4-ylmethyl)-amino]-methyl}-2-(4-trifluoromethoxy-benzyl)-2,3-dihydro-isoindol-1-one] | 6.33
Cc1cc(CN2CCOCC2)cc2c1C(=O)N(Cc1ccc(OC(F)(F)F)cc1)C2 [Example 44, 7-Methyl-5-morpholin-4-ylmethyl-2-(4-trifluoromethoxy-benzyl)-2,3-dihydro-isoindol-1-one] | 6.23
Cc1cc(N2CCN(Cc3ccncc3)CC2)cc2c1C(=O)N(Cc1ccc(N3CCN(Cc4ccncc4)CC3)cc1)C2 [Example 142, 7-Methyl-5-(4-pyridin-4-ylmethyl-piperazin-1-yl)-2-[4-(4-pyridin-4-ylmethyl-piperazin-1-yl)-benzyl]-2,3-dihydro-isoindol-1-one] | 5.39
Cc1cc(CN2CCC(N3CCCCC3)CC2)cc2c1C(=O)N(Cc1ccc(OC(F)(F)F)cc1)C2 [Example 49, 5-[1, 4″]Bipiperidinyl-1″-ylmethyl-7-methyl-2-(4-trifluoromethoxy-benzyl)-2,3-dihydro-isoindol-1-one] | 5.49
O=C1c2ccc(N3CCN(c4ccncc4)CC3)cc2CN1Cc1ccc(OC(F)(F)F)cc1 [Example 149, 5-(4-Pyridin-4-yl-piperazin-1-yl)-2-(4-trifluoromethoxy-benzyl)-2,3-dihydro isoindol-1-one] | 5.01
Cc1cc(C2CCN(C)CC2)cc2c1C(=O)N(Cc1ccc(OC(F)(F)F)cc1)C2 [Example 159, 7-Methyl-5-(1-methyl-piperidin-4-yl)-2-(4-trifluoromethoxy-benzyl)-2,3-dihydro-isoindol-1-one] | 5.89
O=C1c2c(Cl)cc(N3CCN4CCCC4C3)cc2CN1Cc1ccc(Cl)cc1 (centres unmarked) [Example 134, 7-Chloro-2-(4-chloro-benzyl)-5-(hexahydro-pyrrolo[1,2-a]pyrazin-2-yl)-2,3-dihydro-isoindol-1-one] | 6.21
